Measurements from patent publication US12383545B1, “Treatment of migraine” (priority 2018, dated 2025).

Experiments:
[1] = system: participants with episodic migraine; assay: Study A: adverse events (safety population); format: in vivo, human; conditions: for Deaths, n (%) / TEAE Constipation, n (%) / TEAE Fatigue, n (%) / TEAE Gastroenteritis, n (%) / TEAE Influenza, n (%) / TEAE Nasopharyngitis, n (%) / TEAE Nausea, n (%) / TEAE Sinus Congestion, n (%) / TEAE Sinusitis, n (%) / TEAE Somnolence, n (%) / TEAE Upper Respiratory Tract Infection, n (%) / TEAE Urinary Tract Infection, n (%): Study A, safety population
Procedure: Adverse events were reported by participants throughout the trial, and at a 4-week follow-up visit. Adverse event information was collected and documented during each clinic visit. Participants could also report adverse events via telephone call between visits. Causality of each adverse event was determined by the investigator who was blinded to the treatment. In addition, clinical laboratory tests, vital signs, electrocardiograms (ECG), and Columbia-Suicide Severity Rating Scale were evaluated. Based on the potential hepatotoxicity of prior gepants, treatment-emergent elevations in ALT or AST ≥3 times the upper limit of normal, as well as potential Hy's law cases, were evaluated as prespecified adverse events of special interest and were reviewed by an independent panel of liver experts blinded to treatment (see, e.g., Negro A et al., CGRP Receptor Antagonists: an expanding drug class for acute migraine? Expert Opin Investig Drugs 2012; 21:807-18; Messina R et al., CGRP—a target for acute therapy in migraine: Clinical Data. Cephalalgia 2019; 39:420-7).
Safety population included all randomized participants who took at least 1 dose of trial treatment. Participants are only counted once within each category. Percentages are calculated at 100×(n/N), where n is the number of participants within a specific category and N is the number of participants in the safety population for the treatment group. Adverse events are listed in decreasing order based on frequency reported in the overall population.

[2] = system: participants with episodic migraine; assay: Study B: AIM-D PDA and PI domain scores over 52 weeks; format: in vivo, human; conditions: atogepant 60 mg, mITT Population
Excerpt: The Activity in Migraine Diary (AIM-D) evaluates the impact of migraine on the performance of daily activities and physical impairment using an electronic daily diary. In particular, the AIM-D is comprised of two domains that evaluate Performance of Daily Activities (PDA) and Physical Impairment (PI). Assessed items for the AIM-D PDA domain include household chores, errands, leisure activities at home, social or leisure activities outside the home, strenuous physical activities, concentration, and thinking clearly. Assessed items for the AIM-D PI Domain include walking, moving one's body, bending forward, and moving one's head. Response options for each item range from “not difficult at all” to “I could not do it at all” on a 6-point rating scale. The AIM-D domain scores are scaled from 0-100, with higher scores indicating greater impact of migraine, and reductions from baseline in scores indicate improvement. See Cala et al., The Activity Impairment in Migraine-Diary (AIM-D): A Novel Migraine-Specific Patient-Reported Outcome Measure to Assess Functioning Based on Activity Impairment in Episodic and Chronic Migraine Patients, MTIS2018-005 (Sep. 5, 2018).
The negative change scores with confidence intervals that exclude 0 indicate a significant reduction in impairment due to migraine in PDA and PI.
Change scores with confidence intervals excluding zero were present at each time point assessed, indicating significant reduction in impairment due to migraine during the 52-week trial.

C[C@@H]1[C@H](c2c(F)ccc(F)c2F)C[C@H](NC(=O)c2cnc3c(c2)C[C@@]2(C3)C(=O)Nc3ncccc32)C(=O)N1CC(F)(F)F [atogepant]
Deaths, n (%) ([1]; 10 mg QD): (0.0) %
TEAE Constipation, n (%) ([1]; 10 mg QD): (7.7) %
TEAE Fatigue, n (%) ([1]; 10 mg QD): (1.4) %
TEAE Gastroenteritis, n (%) ([1]; 10 mg QD): (0.9) %
TEAE Influenza, n (%) ([1]; 10 mg QD): (1.4) %
TEAE Nasopharyngitis, n (%) ([1]; 10 mg QD): (1.8) %
TEAE Nausea, n (%) ([1]; 10 mg QD): (5.0) %
TEAE Sinus Congestion, n (%) ([1]; 10 mg QD): (0.5) %
TEAE Sinusitis, n (%) ([1]; 10 mg QD): (1.8) %
TEAE Somnolence, n (%) ([1]; 10 mg QD): (3.2) %
TEAE Upper Respiratory Tract Infection, n (%) ([1]; 10 mg QD): (4.1) %
TEAE Urinary Tract Infection, n (%) ([1]; 10 mg QD): (1.4) %
Deaths, n (%) ([1]; 30 mg QD): (0.0) %
TEAE Constipation, n (%) ([1]; 30 mg QD): (7.0) %
TEAE Fatigue, n (%) ([1]; 30 mg QD): (3.1) %
TEAE Gastroenteritis, n (%) ([1]; 30 mg QD): (2.2) %
TEAE Influenza, n (%) ([1]; 30 mg QD): (0.9) %
TEAE Nasopharyngitis, n (%) ([1]; 30 mg QD): (3.5) %
TEAE Nausea, n (%) ([1]; 30 mg QD): (4.4) %
TEAE Sinus Congestion, n (%) ([1]; 30 mg QD): (0.9) %
TEAE Sinusitis, n (%) ([1]; 30 mg QD): (1.3) %
TEAE Somnolence, n (%) ([1]; 30 mg QD): (1.8) %
TEAE Upper Respiratory Tract Infection, n (%) ([1]; 30 mg QD): (5.7) %
TEAE Urinary Tract Infection, n (%) ([1]; 30 mg QD): (3.9) %
Deaths, n (%) ([1]; 60 mg QD): (0.0) %
TEAE Constipation, n (%) ([1]; 60 mg QD): (6.9) %
TEAE Fatigue, n (%) ([1]; 60 mg QD): (3.9) %
TEAE Gastroenteritis, n (%) ([1]; 60 mg QD): (1.3) %
TEAE Influenza, n (%) ([1]; 60 mg QD): (2.2) %
TEAE Nasopharyngitis, n (%) ([1]; 60 mg QD): (3.5) %
TEAE Nausea, n (%) ([1]; 60 mg QD): (6.1) %
TEAE Sinus Congestion, n (%) ([1]; 60 mg QD): (1.7) %
TEAE Sinusitis, n (%) ([1]; 60 mg QD): (2.2) %
TEAE Somnolence, n (%) ([1]; 60 mg QD): (1.7) %
TEAE Upper Respiratory Tract Infection, n (%) ([1]; 60 mg QD): (3.9) %
TEAE Urinary Tract Infection, n (%) ([1]; 60 mg QD): (3.9) %
cases of constipation mild in severity ([1]; human, in vivo, 12 weeks): 71.4%
cases of constipation moderate in severity ([1]; human, in vivo, 12 weeks): 26.5%
cases of nausea mild in severity ([1]; human, in vivo, 12 weeks): 77.1%
cases of nausea moderate in severity ([1]; human, in vivo, 12 weeks): 22.9%
frequency of upper respiratory tract infection ([1]; human, in vivo, 12 weeks): 3.9-5.7%
Change from Baseline in AIM-D Monthly PDA Domain Score, LS Mean Δ from baseline ([2]; Weeks 1-4, MMRM): −7.61
Change from Baseline in AIM-D Monthly PI Domain Score, LS Mean Δ from baseline ([2]; Weeks 1-4, MMRM): −5.56
Change from Baseline in AIM-D Monthly PDA Domain Score, LS Mean Δ from baseline ([2]; Weeks 5-8): −8.16
Change from Baseline in AIM-D Monthly PI Domain Score, LS Mean Δ from baseline ([2]; Weeks 5-8): −5.82
Change from Baseline in AIM-D Monthly PDA Domain Score, LS Mean Δ from baseline ([2]; Weeks 9-12): −8.53
Change from Baseline in AIM-D Monthly PI Domain Score, LS Mean Δ from baseline ([2]; Weeks 9-12): −6.13
Change from Baseline in AIM-D Monthly PDA Domain Score, LS Mean Δ from baseline ([2]; Weeks 13-16): −8.66
Change from Baseline in AIM-D Monthly PI Domain Score, LS Mean Δ from baseline ([2]; Weeks 13-16): −6.22
Change from Baseline in AIM-D Monthly PDA Domain Score, LS Mean Δ from baseline ([2]; Weeks 17-20): −9.02
Change from Baseline in AIM-D Monthly PI Domain Score, LS Mean Δ from baseline ([2]; Weeks 17-20): −6.38
Change from Baseline in AIM-D Monthly PDA Domain Score, LS Mean Δ from baseline ([2]; Weeks 21-24): −9.11
Change from Baseline in AIM-D Monthly PI Domain Score, LS Mean Δ from baseline ([2]; Weeks 21-24): −6.43
Change from Baseline in AIM-D Monthly PDA Domain Score, LS Mean Δ from baseline ([2]; Weeks 25-28): −9.16
Change from Baseline in AIM-D Monthly PI Domain Score, LS Mean Δ from baseline ([2]; Weeks 25-28): −6.40
Change from Baseline in AIM-D Monthly PDA Domain Score, LS Mean Δ from baseline ([2]; Weeks 29-32): −9.22
Change from Baseline in AIM-D Monthly PI Domain Score, LS Mean Δ from baseline ([2]; Weeks 29-32): −6.51
Change from Baseline in AIM-D Monthly PDA Domain Score, LS Mean Δ from baseline ([2]; Weeks 33-36): −9.61
Change from Baseline in AIM-D Monthly PI Domain Score, LS Mean Δ from baseline ([2]; Weeks 33-36): −6.94
Change from Baseline in AIM-D Monthly PDA Domain Score, LS Mean Δ from baseline ([2]; Weeks 37-40): −9.61
Change from Baseline in AIM-D Monthly PI Domain Score, LS Mean Δ from baseline ([2]; Weeks 37-40): −6.93
Change from Baseline in AIM-D Monthly PDA Domain Score, LS Mean Δ from baseline ([2]; Weeks 41-44): −9.77
Change from Baseline in AIM-D Monthly PI Domain Score, LS Mean Δ from baseline ([2]; Weeks 41-44): −7.01
Change from Baseline in AIM-D Monthly PDA Domain Score, LS Mean Δ from baseline ([2]; Weeks 45-48): −9.79
Change from Baseline in AIM-D Monthly PI Domain Score, LS Mean Δ from baseline ([2]; Weeks 45-48): −7.02
Change from Baseline in AIM-D Monthly PDA Domain Score, LS Mean Δ from baseline ([2]; Weeks 49-52, MMRM): −10.17
Change from Baseline in AIM-D Monthly PI Domain Score, LS Mean Δ from baseline ([2]; Weeks 49-52, MMRM): −7.20
